US12054509B2, “Antimicrobial compounds, compositions, and uses thereof” (Lakewood Amedex, Inc., priority 2017, dated 2024)

What was measured:
Solubility = format: physicochemical; settings: unit inferred
[1] = tested on: Helicobacter pylori SS1 (CagA+, VacA+); assay: Helicobacter pylori SS1 infection in C57BL6 mice, bacterial stomach titers; format: in vivo
Text: The mouse strain used in this study is C57BL6 ranging from 5-6 weeks in age and 18-22 grams in weight. Mice are housed five to a cage with free access to food and water in accordance with NIB guidelines.
A bacterial strain of Helicobacter pylori SS1 (CagA+, VacA+) is adapted for the mouse model from a human clinical isolate and validated in this infection model.
At 6 days prior to infection, a frozen stock is streaked onto one to two Columbia 5% sheep blood agar plates, and the plates are microaerophilically incubated for 72 hours at 37° C. After 72 hours, the plate growth is subcultured onto five Columbia 5% sheep blood agar plates and is incubated as before. After another 72 hours of incubation, the plates are removed, and the plate growth is suspended in sterile 0.9% saline to an OD of 1.5-2.0 at 530 nm. This OD is approximately equal to 1.0e+09 CFU/mL, which is used to orally infect the mice on all 3 infection days. To infect mice, the mice are orally dosed 0.25 mL of the 1.0e+09 CFU/mL via a 20-22 G gavage needle. Mice need to be fasted only before the first infection.
At 1 week post-infection, mice are treated with Nu-8. Multiple dose antibiotic therapies are administered orally at 0.2 mL/dose. Antibiotics are administered 2 times per day and continued for 7 days. The control group is administered the vehicle alone.
Food is removed from cages 18 hours prior to euthanizing animals and each cage is clearly labeled that the animals are being experimentally fasted. Mice are euthanized (CO2 & cervical dislocation). […] The excised stomach is placed into a sterile petri dish and the luminal contents are rinsed away with sterile 1×PBS. Each rinsed stomach is placed into a 14-mL Falcon tube containing 2 mL of 1×PBS and stored on ice. Each stomach is homogenized, 10-fold serial diluted in 1×PBS, spot plated onto Columbia agar with 3.5% laked horse blood±the DENT selective antibiotic supplement, and microaerophilically incubated for 5 days at 37° C. Then, colonies are counted.
Nu-8 is administered at various doses (mg/kg), orally, twice-a-day for 7 days. The formulations, concentration and dose volumes for treatment is established prior to dosing. The positive control group consists of a triple therapy regimen (omeprazole, amoxicillin, and clarithromycin). Negative control used dosing solution without drugs.

E. coli ATCC 25922 = assay: Bacterial cytological profiling (Example 6), E. coli; format: cell-based;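 on effect on cell envelope: tested at 1 0.5 and 0.25 times MIC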
Method: This bacterial cytological profiling (BCP) study uses methods and materials described previously by Nonejuie, P., Burkart, M., Poglianoa, K., Pogiano, J. (2013). Bacterial cytological profiling rapidly identifies the cellular pathways targeted by antibacterial molecules. Proc. Natl. Acad. Sci. U.S.A. 110(40):16169-16174. doi: 10.1073/pnas.1311066110.
Wild type strains of E. coli ATCC 25922 or P. aeruginosa K2732 are grown in rich media (unbuffered 2× Lysogeny broth [LB]) at 30 C to an OD600˜0.4. These cultures are then split and each sample treated with the appropriate concentration of Nu-8 in unbuffered or buffered LB (final mixture OD600˜0.1). Cells exposed without Nu-8 are buffered to pH 4 with phosphoric acid.
The BCP is performed in LB media buffered to pH 4. The minimum inhibitory concentration (MIC) is measured for Nu-3, Nu-4, Nu-5, and Nu-8 against each bacterial strain. As one of ordinary skill in the art understands, minimum inhibitory concentrations are the lowest concentration of an antimicrobial that will inhibit the visible growth of a microorganism after overnight incubation. […] Cellular viability is assayed at three time points (5 minutes and 4 and 24 h following the onset of treatment).
For imaging E. coli, treated cells are stained with 1 μg/Ml FM4-64, 2 μg/mL DAPI, and 0.5 μM SYTOXGreen (Molecular Probes/Invitrogen). P. aeruginosa samples are stained 0.5 μM SYTOX Green, 28 μg/mL DAPI, and 4.5 μg/mL FM 4-64. Cells are transferred to an agarose pad (20% LB, 1% agarose) for imaging as described in Pogliano, J., Osborne, N., Sharp, M. D., Abanes-De Mello, A., Perez, A., Sun, Y.-L. and Pogliano, K. (1999), A vital stain for studying membrane dynamics in bacteria: a novel mechanism controlling septation during Bacillus subtilis sporulation. Molecular Microbiology, 31: 1149-1159. doi:10.1046/j.1365-2958.1999.01255.x.

Candida Albicans = assay: MIC against a single isolate (Example 26); format: cell-based; settings: single isolate, read-out: C. albicans MIC
Method: (§1) Bacterial strains evaluated in this study include Escherichia coli, Klebsiella spp, Serratia marcescens, Proteus mirabilis/vulgaris, Citrobacter spp, Providencia spp, Morganella morganii, Pseudomonas aeruginosa, Staphylococcus aureus (MRSA only), and Enterococcus faecalis. Nu-8 test solutions are adjusted to pH 3.5 with citric acid, and MIC is evaluated per the CLSI methods in Mueller-Hinton broth supplemented accordingly to facilitate growth of specific strains.
(§2) MIC was determined as per Example 9 using LAI-101, LAI-102, Nu-10, LAI-105, LAI-106, Nu-3, and Nu-8 against a single isolate of Escherichia coli. Pseudomonas aeruginosa, Staphylococcus aureus (MRSA only), and Candida Albicans. For all microbe species, the LAI-101, LAI-102, Nu-10, LAI-105, and LAI-106 all perform at least as well as, and in many experiments better than, Nu-8 and Nu-3, which are both already quite active compounds.

Escherichia coli = assay: MIC against a single isolate (Example 26); format: cell-based; settings: single isolate, read-out: E. coli MIC
Method: as §1, §2

Pseudomonas aeruginosa = assay: MIC against a single isolate (Example 26); format: cell-based; settings: single isolate, read-out: P. aeruginosa MIC
Method: as §1, §2

[2] = tested on: Staphylococcus aureus (MRSA only); assay: MIC against a single isolate (Example 26); format: cell-based; settings: single isolate, read-out: S. aureus MIC
Method: as §1, §2

With CCCCOP(=O)(O)OC[C@H]1O[C@@H](n2ccc(N)nc2=O)C[C@@H]1OP(=O)(O)OCCCC [Nu-8, sodium ((2R,3S,5R)-5-(4-amino-2-oxopyrimidin-1(2H)-yl)-3-((butoxyoxidophosphor-yl)oxy)tetrahydrofuran-2-yl)methyl butyl phosphate] the solubility (Solubility) was 137 mg/mL, the “mean bacterial stomach titer” value ([1]; 0.2 mg (1 mg/mL, 0.2 mL) PO bid 7 days, +7 Days) was 5.62 log10 CFU and the “mean bacterial stomach titer” value ([1]; 0.2 mg (1 mg/mL, 0.2 mL) PO bid 7 days, +14 Days) was 6.2 log10 CFU. For the same compound, the “mean bacterial stomach titer” value ([1]; 1.0 mg (5 mg/mL, 0.2 mL) PO bid 7 days, +7 Days) was 5.21 log10 CFU, the “mean bacterial stomach titer” value ([1]; 1.0 mg (5 mg/mL, 0.2 mL) PO bid 7 days, +14 Days) was 5.67 log10 CFU and the “mean bacterial stomach titer” value ([1]; 2 mg (10 mg/mL, 0.2 mL) PO bid 7 days, +7 Days) was 4.74 log10 CFU. For the same compound, the “mean bacterial stomach titer” value ([1]; 2 mg (10 mg/mL, 0.2 mL) PO bid 7 days, +14 Days) was 5.81 log10 CFU, the “effect on cell envelope” value (E. coli ATCC 25922; BCP) was “affect the cell envelope” and the cell membrane permeability (E. coli ATCC 25922; buffered pH 4 or unbuffered LB) was “increase cell membrane permeability”. For the same compound, the DNA condensation (E. coli ATCC 25922; higher treatment concentrations, buffered pH 4) was “causes DNA condensation”, the MIC (Candida Albicans) was over 50 mg/mL and the MIC (Escherichia coli) was over 50 mg/mL. It also gave an MIC (Pseudomonas aeruginosa) of over 50 mg/mL and an MIC [2] of over 50 mg/mL.
